The record followed here is patent publication US6451787B1, “Remedies for ocular diseases” (Cephalon, Inc., priority 1998, dated 2002).

Molecules are shown by their SMILES.

Assay [1] deals with retinal gangliocyte in a retinal ischemia—reperfusion model. The assay can be described thus: Effects on the retina subjected to the ischemia—reperfusion treatment. In kind it is in vivo, rat. From the text:
1. Effects on the Retina Subjected to the Ischemia—Reperfusion Treatment
It has been reported that brain-derived neurotrophic factor (it is referred to as BDNF hereinafter) which is a neurotrophic factor has a protective effect against gangliocytic death caused by retinal ischemia (Invest. Ophthalmol. Vis. Sci. 35, 907-915 (1994)).
Thus, according to the method described in this reference, the effects of the compounds on retinal gangliocyte in a retinal ischemia—reperfusion model were studied.
Under anesthesia with a mixture of Ketalar and Celactal, the conjunctiva of a male Spraugue—Dawley rat (300-450 g) was dissected to expose the optic nerve and then the retina was subjected to an ischemic state by ligating the optic nerve with a suture. Sixty minutes after the ischemia, the suture was taken out to reperfuse the retina with the blood by allowing the circulation. Seven days after the reperfusion, the eye bulb was enucleated and then immobilized with paraformaldehyde, and after embedding it in paraffin, the transverse paraffin sections of the eye bulb with 3 μm of the thickness were prepared by slicing the eye bulb beginning from the point of exposure of the optic nerve with 60 μm of each interval. These sections were stained with hematoxylin—eosin and photographs were taken for the section in which the retinal part at the distance of approximately 1 mm from the optic disc to either direction, left or right, is included to measure the number of the cells contained in the layer of gangliocyte.
Here, the compound was dissolved into polyethylene glycol 660 hydroxystearate and injected in the volume of 1 μl into the hyaloid body two day before the creation of the ischemic state.

Assay [2] deals with retinal disturbance induced by injecting kainic acid into the hyaloid body. In words: Effects on the retina from the eye treated with kainic acid. In kind it is in vivo, rat. As to conditions: for Thickness of the inner plexiform layer: injected two days before, at the same time as and one day after kainic acid, Normal 47.5, Control 20.8; for Thickness of the inner plexiform layer / Number of the cells in the layer of gangliocyte: 7 days after; for Number of the cells in the layer of gangliocyte: Normal 64.2, Control 36.8. As to the method: 2. Effects on the Retina From the Eye Treated with Kainic Acid
It has been reported that when kainic acid, that is a neurotoxin, is injected into the hyaloid body, the inner plexiform layer becomes thinner because of synaptic collapse caused by cell death of amacrine cell or the number of the cells contained in the layer of gangliocyte decreases because of apoptosis happening to those cells (Neurochem. Int., 31, 251-260 (1997)).
Then, according to the method described in this reference, the effects of the compound on the retinal disturbance induced by injecting kainic acid into the hyaloid body were studied.
To a male Sprague—Dawley rat (180-250 g) under anesthesia with pentobarbital, a solution of kainic acid in polyethylene glycol 660 hydroxystearate (1 mmol/L) was injected into the hyaloid bodies in both of the eyes in the amount of 5 μl under observation with a stereoscopic microscopy. […]. These sections were stained with hematoxylin—eosin and photographs were taken for the sections in which the retinal part at the distance of approximately 1 mm from the optic disc to either direction, left or right, is included to measure the thickness of the inner plexiform layer and the number of the cells contained in the layer of gangliocyte.
The compound was dissolved into polyethylene glycol 660 hydroxystearate and then injected into the hyaloid bodies two days before, at the same time as and one day after the kainic acid treatment in the volume of 5 μl each.

For the compound `CCSCc1ccc2c(c1)c1c3c(c4c5cc(CSCC)ccc5n5c4c1n2[C@H]1C[C@](O)(C(=O)OC)[C@]5(C)O1)CNC3=O` [Compound A], in assay [1] (3 μg injected, ischemia—reperfusion treatment), the “Number of the cells in the layer of gangliocyte recovered to the level of that for Normal Group (1)” value was found to be 70.9%. The “Number of the cells in the layer of gangliocyte” value was 27.5 cells/mm in assay [1] (3 μg/eye injected into the hyaloid body two days before 60 min ischemia, 7 days after reperfusion, Normal Group 38.8, Control Group 20.5); 51.8 cells/mm in assay [2] (3 μg/eye, kainic acid treatment); 42.3 cells/mm in assay [2] (30 μg/eye [sic], kainic acid treatment). The “Protective effect on neurocyte disturbance of the retina caused by the ischemia—reperfusion treatment” value in assay [1] (conclusion in words) is recorded as “superior protective effect”. Moreover, the “Number of the cells in the layer of gangliocyte recovered to the level of that for Normal group (2)” value in assay [2] (3 μg injected, kainic acid treatment) was 80.7%. Further, the “Thickness of the inner plexiform layer” value came out at 28.8 μm in assay [2] (3 μg/eye) and 23.8 μm in assay [2] (30 μg/eye [sic]). The “Protective effect against neurocyte disturbance of the retina caused by the kainic acid treatment” value in assay [2] (conclusion in words) is “superior protective effect”.
